{"source": "patent EP0551200A1", "about": "“Protein phosphatase inhibitors for use in therapy” (priority 1992, dated 1993)", "key": {"Egr-1 protein": {"tested_on": "Egr-1 protein", "experiment": "Western blot analysis of Egr-1 protein from primary human fibroblasts", "type": "cell-based", "method": "Quiescent primary human fibroblasts were incubated with MEM containing 0.5 µM of okadaic acid for the times indicated. As a positive control, the quiescent cells were also incubated with medium containing 20% fetal calf serum for 2 h. Total cellular proteins were extracted and subjected to Western blot analysis as described previously (Cao et al, Mol. Cell. Biol. 10, 1931-1939, 1989). The blot was reacted with anti-Egr-1 polyclonal antibody (R5232).\nCellular proteins were extracted from quiescient, okadaic acid-treated and serum-treated human fibroblasts and subjected to Western blot analysis using rabbit polyclonal Egr-1 antibodies. In the control quiescent cells, traces of Egr-1 protein with molecular masses of 80 kDa and 100 kDa were detected. An approximately 6-fold increase of the 80 kDa protein was measured in the cells 2 h after serum stimulation. An approximately 2-fold increase in the 80 kDa Egr-1 protein was detected in the cells after 1 h okadaic acid treatment. However, at 2.5 h after okadaic acid treatment the Egr-1 protein was mostly detected as the 100 kDa moiety rather than as the 80 kDa protein (Fig. 13). […] By 6 h after okadaic acid treatment the cellular level of the 100 kDa Egr-1 protein was reduced (Fig. 13). […]"}, "Egr-1 mRNA": {"tested_on": "Egr-1 mRNA", "experiment": "Northern blot analysis of Egr-1 mRNA induction in quiescent primary human fibroblasts", "type": "cell-based", "method": "Quiescent human fibroblasts were incubated with TNF (500 units/ml) (a) or OA (500 nM) (b) for 0, 30, 60 min after which total cellular RNA was extracted. Blots of RNA from these cells were hybridized to radiolabeled (10⁶ cpm/ml) Egr-1 cDNA probe. c, the blot in b was stripped and reprobed with c-jun cDNA. Note: Egr-1 mRNA probe was not completely stripped from the blot. The autoradiograph of the blot is presented. d, regularly maintained cells were incubated wither with no additions (control, 0 time) or with OA for 1, 3, 5, 7 h and Northern analysis was carried out with an IL-6 cDNA probe (ATCC, Rockville, MD, US).\n10 µg of RNA was applied to each lane and subjected to Northern blot analysis using an Egr-1 specific cDNA probe [1.6 kb Bgl II fragment (Sukhatme et al, Cell 53, 37-48, 1988)]. The same blots were rehybridized with actin or GADPH cDNA for normalizing the amount of RNA loaded. The blots were dried and autoradiographed. • (A). Time course of okadaic acid-induced Egr-1 and c-jun messages in primary human fibroblasts. Quiescent human fibroblasts were induced with 1 µM of okadaic acid for the time periods indicated. […] Time course of okadaic acid-induced Egr-1 message in Balb/c 3T3 cells. Quiescent Balb/c 3T3 cells were induced with okadaic acid (0.5µM) for the times indicated. • (C). Concentration dependent induction of Egr-1 message by okadaic acid in Balb/c 3T3 cells. Quiescent Balb/c 3T3 cells were induced with the indicated concentrations of okadaic acid for 1 h. As controls, different concentrations of DMSO were included. These corresponded to the amounts present in 0.25 µM okadaic acid (0.025% dimethyl sulphoxide (DMSO)) 0.5 µM okadaic acid (0.05% DMSO) and 1 µM okadaic acid (0.1%). • (D). Concentration dependent and time course induction of Egr-1 message by calyculin A. Quiescent Balb/c 3T3 cells were induced with different concentrations of calyculin A for 1 h. Northern analysis of this dose-dependent induction by calyculin A is shown on the left panel of the figure. […] Northern analysis of this time course induction by calyculin A is shown in the right panel of the figure. The same blot was rehybridized with pCMV-fos (Curran et al, Oncogene 2, 79-84, 1987) and pCMV-jun (Rauscher et al, 1988) shown in the middle panel. The blot was dried and autoradiographed.\nCells were incubated with either 0.5 µM of okadaic acid or 10 µg/ml of cycloheximide as well as with 0.5 µM of okadaic acid and 10 µg/ml of cycloheximide for 1.5, 3 or 6 h. Cells were harvested, RNA isolated and subjected to Northern blot analysis. The blot was probed with Egr-1 or actin cDNA.\nQuiescent primary human fibroblasts were incubated with okadaic acid (OA) or TPA for 1 or 3 h. The concentrations of OA and TPA were 0.5 µM and 120 ng/ml, respectively. The concentration of 1-(5-isoquinolinylsulfonyl)-2-methylpiperazine dihydrochloride (H7) and N-(2-guanidinoethyl)-5-isoquinolinesulphonamide dihydrochloride (HA1004) used was 25 µM. The cells were pre-treated for 15 min with H7 or HA1004 before they were induced by OA or TPA for 1 or 3 h. Cells were harvested, RNA was isolated and subjected to Northern blot analysis. The blot was probed with Egr-1 or GADPH cDNA. • (B). As a positive control, primary human fibroblasts were treated with TPA (30 ng/ml) for 1 h (1st lane). The fibroblasts were also pre-treated with H7 (25 µM) or HA1004 (25 µM) for 15 min before treatment with TPA for 1 h (2nd and 3rd lanes respectively). […] The blot was probed with Egr-1 or actin cDNA. • (C). Quiescent Balb/c 3T3 cells were incubated with OA, TPA or dBt-cAMP for 1 h or pre-treated with H7 (25 µM) or HA1004 (25 µM) for 15 min and then incubated with each of the agonists for 1 h. Cells were harvested, RNA was isolated and subjected to Northern blot analysis. […]"}}, "data": [{"smiles": "C=C1[C@@H](O)[C@@H]2O[C@]3(CC[C@H](/C=C/[C@@H](C)[C@@H]4CC(C)=C[C@@]5(O[C@H](C[C@@](C)(O)C(=O)O)CC[C@H]5O)O4)O3)CC[C@H]2O[C@@H]1[C@@H](O)C[C@H](C)[C@H]1O[C@@]2(CCCCO2)CC[C@H]1C", "note": "[okadaic acid]", "values": [{"measurement": "level of the 100 kDa Egr-1 protein relative to the 80 kDa Egr-1 protein of control cells", "setting": "Egr-1 protein; 0.5 µM, 2.5 h", "value": "3 to 4", "unit": "fold"}, {"measurement": "fold induction at 0.5 µM", "setting": "Egr-1 protein; Homo sapiens, Fibroblast, 1 h, read-out: increase in the 80 kDa Egr-1 protein", "value": "~2"}, {"measurement": "time for which the Egr-1 mRNA level is maintained", "setting": "Egr-1 mRNA; 1 µM", "value": "up to 7 h"}, {"measurement": "time of maximal induction of Egr-1 mRNA", "setting": "Egr-1 mRNA; 1 µM", "value": "about 2 h"}, {"measurement": "time to induction of Egr-1 mRNA", "setting": "Egr-1 mRNA; 1 µM, Example 2", "value": "≤ 1", "unit": "h"}, {"measurement": "fold induction at 1 µM", "setting": "Egr-1 mRNA; Homo sapiens, Fibroblast, read-out: Egr-1 mRNA level over control", "value": "30 to 40"}, {"measurement": "time to induction of Egr-1", "setting": "Egr-1 mRNA; OA 500 nM, Example 1", "value": "≤ 30", "unit": "min"}]}]}
